≈ marks a conversion by molar mass, not a printed value. Read-outs that look alike come from different tables or passages of the source.
Key:
Experiment in all cases: microbe, parasite or virus in culture
[1] = test system: Multidrug-Resistant (MDR) S. aureus; conditions: for MIC: Staphylococcus aureus, 24 h; for susceptibility/resistance of the S. aureus isolates based on the MIC breakpoints: four MDR S. aureus isolates
Protocol: (§1) We further evaluated analogue 12 against multidrug-resistant (MDR) strains of S. aureus (acquired from the NARSA collection) and MDR E. faecium (acquired from International Health Management Associates, IHMA, Europe Sarl), comparing its activity to various classes of clinically used antibiotics (Table ).
(§2) MICs were performed as previously reported 4. For MIC testing all peptides were dissolved in DMSO.
(§3) Bacterial cultures were grown overnight on Mueller-Hinton Agar (MHA) plates and adjusted to a final inoculum of 10^5 – 10^6 CFU/mL. 100 µl of ino culum in Meuller -Hinton broth (MHB) was mixed with equal volume of peptides (dissolved in MHB) at 2x their concentration in a 96 well plate . For daptomycin MIC determination, the same protocol was followed with the addition of 50 mg/L calcium chloride to the medium. MIC values were determined in the media contain ing polysorbate 80 (0.002%, v/v) to prevent non -specific adsorption of the peptides to plastic surfaces. The final peptides concentrations ranged from 0.0625 – 32 µg/mL. The 96 well plates were then incubated at 37 °C for 24 h. All the experiments were performed in two independent duplicates and the MIC was determined as the lowest concentration in which no visible growth was observed.
(§4) Antibiotics MIC break points ( µg/mL)
(§5) Table. S4: Susceptibility cut-off values (MIC breakpoints) for various clinical antibiotics. […]

[2] = test system: Multidrug-Resistant (MDR) E. faecium; conditions: Enterococcus faecium
Protocol: as §1, §2, §3, §4, §5

[3] = test system: MRSA ATCC 33591; assay type: cell-based, Staphylococcus aureus; conditions: broth dilution in MHB with 0.002% v/v polysorbate 80, inoculum 10^5-10^6 CFU/mL, 37 °C, 24 h, no visible growth, two independent duplicates, Table 1
Protocol: as §2
as §3, with “observed. […]” for “observed.”

[4] = read-out: MIC, Staphylococcus aureus NR 45914
[5] = read-out: MIC, Staphylococcus aureus NR 45926
[6] = read-out: MIC, Staphylococcus aureus NR 45930
[7] = read-out: MIC, Staphylococcus aureus NR 46062
[8] = 24 h, read-out: MIC, Enterococcus faecium 1563254
[9] = 24 h, read-out: MIC, Enterococcus faecium 1581582
[10] = 24 h, read-out: MIC, Enterococcus faecium 1766686

SMILES | MIC [1, 4] [µg/mL] | MIC [1, 5] [µg/mL] | MIC [1, 6] [µg/mL] | MIC [1, 7] [µg/mL] | susceptibility/resistance of the S. aureus isolates based on the MIC breakpoints [1] | MIC [2, 8] [µg/mL] | MIC [2, 9] [µg/mL] | MIC [2, 10] [µg/mL] | MIC ([2]; read-out: MIC, two E. faecium clinical isolates that remained susceptible to linezolid) [µg/mL] | MIC against MRSA ATCC 33591 [3] [µg/mL] | MIC against MRSA ATCC 33591 ([3]; listed as Novltex analogue 4) [µg/mL]
CC1(C)S[C@@H]2[C@H](NC(=O)[C@H](N)c3ccccc3)C(=O)N2[C@H]1C(=O)O [Ampicillin] | 2 (≈ 5.72 µM) | 32 (≈ 91.6 µM) | 8 (≈ 22.9 µM) | 8 (≈ 22.9 µM) | 3 out of 4 isolates showed resistance | > 32 | > 32 | > 32 | – | – | –
CO/N=C(\C(=O)N[C@@H]1C(=O)N2C(C(=O)O)=C(COC(C)=O)CS[C@H]12)c1csc(N)n1 [Cefotaxime] | 4 (≈ 8.78 µM) | 16 (≈ 35.1 µM) | 8 (≈ 17.6 µM) | 16 (≈ 35.1 µM) | – | > 32 | > 32 | > 32 | – | – | –
C[C@H]1COc2c(N3CCN(C)CC3)c(F)cc3c(=O)c(C(=O)O)cn1c23 [Levofloxacin] | 1 (≈ 2.77 µM) | 4 (≈ 11.1 µM) | > 32 | 32 (≈ 88.6 µM) | 3 out of 4 isolates showed resistance | 32 (≈ 88.6 µM) | 32 (≈ 88.6 µM) | 32 (≈ 88.6 µM) | – | – | –
CC(=O)NC[C@H]1CN(c2ccc(N3CCOCC3)c(F)c2)C(=O)O1 [Linezolid] | 2 (≈ 5.93 µM) | 32 (≈ 94.9 µM) | 4 (≈ 11.9 µM) | 16 (≈ 47.4 µM) | 3 out of 4 isolates showed resistance | 16 (≈ 47.4 µM) | 1 (≈ 2.96 µM) | 1 (≈ 2.96 µM) | 1 (≈ 2.96 µM) | – | –
CC(C)C[C@@H]1NC(=O)[C@@H](CC(C)C)NC(=O)[C@H](C)NC(=O)[C@@H](NC(=O)[C@H](CO)NC(=O)[C@@H](CCCCN)NC(=O)[C@@H](CC(C)C)NC(=O)[C@@H](N)Cc2ccccc2)[C@@H](C)OC1=O [analogue 1] | – | – | – | – | – | – | – | – | – | 8 (≈ 9.15 µM) | –
CC(C)C[C@@H]1NC(=O)[C@@H](CC(C)C)NC(=O)[C@H](C)NC(=O)[C@H](NC(=O)[C@H](CO)NC(=O)[C@@H](CCCCN)NC(=O)[C@@H](CC(C)C)NC(=O)[C@@H](N)Cc2ccccc2)[C@H](C)OC1=O [analogue 2] | – | – | – | – | – | – | – | – | – | 32 (≈ 36.6 µM) | –
CC(C)C[C@H](NC(=O)[C@H](N)Cc1ccccc1)C(=O)N[C@@H](CCCCN)C(=O)N[C@H](CO)C(=O)N[C@H]1C(=O)N[C@@H](C)C(=O)N[C@@H](CC(C)C)C(=O)N[C@@H](CC(C)C)C(=O)O[C@H]1C [analogue 3] | – | – | – | – | – | – | – | – | – | 32 (≈ 36.6 µM) | –
CC(C)C[C@@H]1NC(=O)[C@H](C)NC(=O)[C@H](NC(=O)[C@H](CO)NC(=O)[C@@H](CCCCN)NC(=O)[C@@H](CC(C)C)NC(=O)[C@@H](N)Cc2ccccc2)[C@H](C)OC(=O)[C@H](CC(C)C)NC1=O [analogue 4] | – | – | – | – | – | – | – | – | – | 2 to 4 | 4 (≈ 4.58 µM)
CC(C)C[C@H](NC(=O)[C@H](N)Cc1ccccc1)C(=O)N[C@H](CCCCN)C(=O)N[C@@H](CO)C(=O)N[C@H]1C(=O)N[C@@H](C)C(=O)N[C@@H](CC(C)C)C(=O)N[C@@H](CC(C)C)C(=O)O[C@H]1C [analogue 5] | – | – | – | – | – | – | – | – | – | > 32 | –
CC(C)C[C@@H]1NC(=O)[C@H](C)NC(=O)[C@H](NC(=O)[C@@H](CO)NC(=O)[C@H](CCCCN)NC(=O)[C@@H](CC(C)C)NC(=O)[C@@H](N)Cc2ccccc2)[C@H](C)OC(=O)[C@H](CC(C)C)NC1=O [analogue 6] | – | – | – | – | – | – | – | – | – | > 32 | –

Source: paper PMC12481569, “Novltex: A New Class of Antibiotics with Potent Activity against Multidrug-Resistant Bacterial Pathogens–Design, Synthesis, and Biological Evaluation” (Journal of Medicinal Chemistry, 2025)
